Laboratory results as given in patent publication US20060252807A1, “Novel ortho-terphenyl inhibitors of p38 kinase and methods of treating inflammatory disorders” (Kalypsys, Inc., priority 2005, published 2006).

molecular target: T1, active p38 alpha enzyme (Upstate Biotechnology) (Homo sapiens, UniProt Q16539); assay: p38α biochemical assay (ATP turnover, luminescent detection, Cambrex PKlight); details: p38α kinase; Table 1 Biological Activity
T1 construct: purchased Upstate Biotechnology
Outline: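 Active p38α phosphorylates MapkapK2 whole protein with 1.4 uM final ATP, 2 h at 30C, in Tris/MOPS buffer with MgCl2, CaCl2, EGTA, EDTA, glycerol, β-mercaptoethanol and 1 mg/ml BSA. Compounds pin-delivered from DMSO; total ATP turnover read by luminescence after PKlight addition.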

T1 sequence (Q16539 whole entry): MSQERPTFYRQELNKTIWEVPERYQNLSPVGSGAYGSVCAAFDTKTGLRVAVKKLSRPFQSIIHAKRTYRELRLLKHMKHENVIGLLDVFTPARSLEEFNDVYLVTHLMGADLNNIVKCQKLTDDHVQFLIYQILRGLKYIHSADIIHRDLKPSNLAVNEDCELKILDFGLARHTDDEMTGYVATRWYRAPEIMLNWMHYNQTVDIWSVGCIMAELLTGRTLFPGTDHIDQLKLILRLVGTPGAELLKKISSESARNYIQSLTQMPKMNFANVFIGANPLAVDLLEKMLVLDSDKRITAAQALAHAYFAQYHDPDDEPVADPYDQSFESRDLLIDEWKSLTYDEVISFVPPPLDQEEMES

| Compound | IC50 [µM] |
| --- | --- |
| Cc1ccc(C(=O)N2CCC(c3[nH]nc(-c4ccc(F)cc4)c3-c3nc(C(=O)NC(C)C)cs3)CC2)cc1Br [Example 1007] | > 1 |
| CC(C)NC(=O)c1csc(-c2c(-c3ccc(F)cc3)n[nH]c2C2CCN(C(=O)Cc3ccc(Br)cc3)CC2)n1 [Example 1008] | > 1 |
| CC(C)NC(=O)c1csc(-c2c(-c3ccc(F)cc3)n[nH]c2C2CCN(C(=O)/C=C/c3ccccc3C(F)(F)F)CC2)n1 [Example 1010] | > 1 |
| CCOc1ccc2ccccc2c1C(=O)N1CCC(c2[nH]nc(-c3ccc(F)cc3)c2-c2nc(C(=O)NC(C)C)cs2)CC1 [Example 1011] | > 1 |
| CC(C)NC(=O)c1csc(-c2c(-c3ccc(F)cc3)n[nH]c2C2CCN(C(=O)CCc3cccc(C(F)(F)F)c3)CC2)n1 [Example 1014] | > 1 |
| CC1=NN(c2ccc(C(=O)N3CCC(c4[nH]nc(-c5ccc(F)cc5)c4-c4nc(C(=O)NC(C)C)cs4)CC3)cc2)C(=O)C1 [Example 1015] | > 1 |
| Cc1nc(Br)sc1C(=O)N1CCC(c2[nH]nc(-c3ccc(F)cc3)c2-c2nc(C(=O)NC(C)C)cs2)CC1 [Example 1016] | > 1 |
| CC(C)NC(=O)c1csc(-c2c(-c3ccc(F)cc3)n[nH]c2C2CCN(C(=O)c3c4ccccc4cc4ccccc34)CC2)n1 [Example 1017] | > 1 |
| CC(C)NC(=O)c1csc(-c2c(-c3ccc(F)cc3)n[nH]c2C2CCN(C(=O)c3c(Cl)cc(Cl)cc3Cl)CC2)n1 [Example 1020] | > 1 |
| COc1cc(C(=O)N2CCC(c3[nH]nc(-c4ccc(F)cc4)c3-c3nc(C(=O)NC(C)C)cs3)CC2)c([N+](=O)[O-])cc1OC [Example 1021] | > 1 |
| CC(C)NC(=O)c1csc(-c2c(-c3ccc(F)cc3)n[nH]c2C2CCN(C(=O)c3ccc(OCc4ccccc4)cc3)CC2)n1 [Example 1022] | > 1 |
| CC(C)NC(=O)c1csc(-c2c(-c3ccc(F)cc3)n[nH]c2C2CCN(C(=O)CCc3ccccc3Br)CC2)n1 [Example 1023] | > 1 |
| CC(C)NC(=O)c1csc(-c2c(-c3ccc(F)cc3)n[nH]c2C2CCN(C(=O)CCc3cccc(Br)c3)CC2)n1 [Example 1024] | > 1 |
| CC(C)NC(=O)c1csc(-c2c(-c3ccc(F)cc3)n[nH]c2C2CCN(C(=O)c3ccc(Oc4cccc(O)c4)cc3)CC2)n1 [Example 1026] | > 1 |
| COc1ccc2cc(C(C)C(=O)N3CCC(c4[nH]nc(-c5ccc(F)cc5)c4-c4nc(C(=O)NC(C)C)cs4)CC3)ccc2c1 (stereo not drawn) [Example 1027] | > 1 |
| COc1ccc(Br)c(C(=O)N2CCC(c3[nH]nc(-c4ccc(F)cc4)c3-c3nc(C(=O)NC(C)C)cs3)CC2)c1 [Example 1030] | > 1 |
| CC(C)NC(=O)c1csc(-c2c(-c3ccc(F)cc3)n[nH]c2C2CCN(C(=O)c3ccc(C(F)(F)F)cc3[N+](=O)[O-])CC2)n1 [Example 1033] | > 1 |
| CC(C)NC(=O)c1csc(-c2c(-c3ccc(F)cc3)n[nH]c2C2CCN(C(=O)c3cc(Br)ccc3Cl)CC2)n1 [Example 1034] | > 1 |
| CC(C)NC(=O)c1csc(-c2c(-c3ccc(F)cc3)n[nH]c2C2CCN(C(=O)c3ccc(Cl)c(Br)c3)CC2)n1 [Example 1035] | > 1 |
| CC(C)NC(=O)c1csc(-c2c(-c3ccc(F)cc3)n[nH]c2C2CCN(C(=O)c3ccccc3C(=O)c3ccc(O)cc3)CC2)n1 [Example 1036] | > 1 |
| CC(C)NC(=O)c1csc(-c2c(-c3ccc(F)cc3)n[nH]c2C2CCN(C(=O)c3ccccc3C(=O)c3ccc(F)cc3)CC2)n1 [Example 1037] | > 1 |
| CC(C)NC(=O)c1csc(-c2c(-c3ccc(F)cc3)n[nH]c2C2CCN(C(=O)C(C)c3ccc(-c4ccccc4)c(F)c3)CC2)n1 (stereo not drawn) [Example 1038] | > 1 |
| CC(C)NC(=O)c1csc(-c2c(-c3ccc(F)cc3)n[nH]c2C2CCN(C(=O)C3CCCN3C(=O)OCc3ccccc3)CC2)n1 (stereo not drawn) [Example 1041] | > 1 |
| CC(C)NC(=O)c1csc(-c2c(-c3ccc(F)cc3)n[nH]c2C2CCN(C(=O)C(C)c3cccc(C(=O)c4ccccc4)c3)CC2)n1 (stereo not drawn) [Example 1044] | > 1 |
| CNCc1nc(-c2ccc(F)cc2)c(-c2nc(C(=O)NC(C)C)cs2)o1 [Example 1049] | > 1 |
| CCNCc1nc(-c2ccc(F)cc2)c(-c2nc(C(=O)NC(C)C)cs2)o1 [Example 1050] | > 1 |
| C#CCNCc1nc(-c2ccc(F)cc2)c(-c2nc(C(=O)NC(C)C)cs2)o1 [Example 1051] | > 1 |
| CC(C)NC(=O)c1csc(-c2oc(CNCC#N)nc2-c2ccc(F)cc2)n1 [Example 1052] | > 1 |
| CC(C)NC(=O)c1csc(-c2oc(CNC3CC3)nc2-c2ccc(F)cc2)n1 [Example 1053] | > 1 |

Results, then the molecule that gave them:

| IC50 [µM] | Compound |
| --- | --- |
| > 1 | CC(C)NC(=O)c1csc(-c2c(-c3ccc(F)cc3)n[nH]c2C2CCN(C(=O)C3CCCN3C(=O)OC(C)(C)C)CC2)n1 (stereo not drawn) [Example 1009] |
| > 1 | CC(C)NC(=O)c1csc(-c2c(-c3ccc(F)cc3)n[nH]c2C2CCN(C(=O)C(NC(=O)OC(C)(C)C)C(C)C)CC2)n1 (stereo not drawn) [Example 1012] |
| > 1 | CC(C)NC(=O)c1csc(-c2c(-c3ccc(F)cc3)n[nH]c2C2CCN(C(=O)C(NC(=O)OC(C)(C)C)C(C)C)CC2)n1 (stereo not drawn) [Example 1013] |
| > 1 | CC(C)NC(=O)c1csc(-c2c(-c3ccc(F)cc3)n[nH]c2C2CCN(C(=O)c3cc(C(C)C)cc(C(C)C)c3O)CC2)n1 [Example 1018] |
| > 1 | CC(=O)NC(Cc1ccc(O)cc1)C(=O)N1CCC(c2[nH]nc(-c3ccc(F)cc3)c2-c2nc(C(=O)NC(C)C)cs2)CC1 (stereo not drawn) [Example 1019] |
| > 1 | CC(C)NC(=O)c1csc(-c2c(-c3ccc(F)cc3)n[nH]c2C2CCN(C(=O)C3CCCCN3C(=O)OC(C)(C)C)CC2)n1 (stereo not drawn) [Example 1025] |
| > 1 | CC(C)NC(=O)c1csc(-c2c(-c3ccc(F)cc3)n[nH]c2C2CCN(C(=O)C3CN(C(=O)OC(C)(C)C)CCN3)CC2)n1 (stereo not drawn) [Example 1028] |
| ≤ 1 | CC(C)NC(=O)c1csc(-c2c(-c3ccc(F)cc3)n[nH]c2C2CCN(C(=O)C3CN(C(=O)OC(C)(C)C)CCN3)CC2)n1 (stereo not drawn) [Example 1029] |
| ≤ 1 | CC(C)NC(=O)c1csc(-c2c(-c3ccc(F)cc3)n[nH]c2C2CCN(C(=O)C3CC(O)CN3C(=O)OC(C)(C)C)CC2)n1 (stereo not drawn) [Example 1031] |
| ≤ 1 | CC(C)NC(=O)c1csc(-c2c(-c3ccc(F)cc3)n[nH]c2C2CCN(C(=O)C(C(C)C)N(C)C(=O)OC(C)(C)C)CC2)n1 (stereo not drawn) [Example 1032] |
| > 1 | CCC(C)C(NC(=O)OC(C)(C)C)C(=O)N1CCC(c2[nH]nc(-c3ccc(F)cc3)c2-c2nc(C(=O)NC(C)C)cs2)CC1 (stereo not drawn) [Example 1042] |
| ≤ 1 | CC(C)CC(NC(=O)OC(C)(C)C)C(=O)N1CCC(c2[nH]nc(-c3ccc(F)cc3)c2-c2nc(C(=O)NC(C)C)cs2)CC1 (stereo not drawn) [Example 1043] |
| > 1 | CC(C)NC(=O)c1csc(-c2c(-c3ccc(F)cc3)n[nH]c2C2CCN(C(=O)C(Cc3ccccc3)NC(=O)OC(C)(C)C)CC2)n1 (stereo not drawn) [Example 1045] |
| > 1 | CC(C)NC(=O)c1csc(-c2c(-c3ccc(F)cc3)n[nH]c2C2CCN(C(=O)C(Cc3ccccn3)NC(=O)OC(C)(C)C)CC2)n1 (stereo not drawn) [Example 1046] |
| > 1 | CC(C)NC(=O)c1csc(-c2c(-c3ccc(F)cc3)n[nH]c2C2CCN(C(=O)C3Cc4ccccc4CN3C(=O)OC(C)(C)C)CC2)n1 (stereo not drawn) [Example 1047] |
| > 1 | CC(C)NC(=O)c1csc(-c2c(-c3ccc(F)cc3)n[nH]c2C2CCN(C(=O)C(Cc3ccc(O)cc3)NC(=O)OC(C)(C)C)CC2)n1 (stereo not drawn) [Example 1048] |
